# “And” between values parts separate entries of the source, which are not always exact repeats. Identical values can stand only once. Toxic doses and inconclusive results are not listed.
# System: P388 leukemia ip, CD2F1 mice, survival T/C
# Experiment: NCI In Vivo Anticancer Drug Screen. Data for tumor model P388 Leukemia (intraperitoneal) in CD2F1 (CDF1) mice
# Settings: endpoint: median survival time, higher = longer survival
# In short: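 Mice carrying the transplanted tumor received test compound or vehicle. Survival was recorded in each group, and the value is the treated-group measurement divided by that of the vehicle-treated control group.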
# [1] = dose: 25.0 mg/kg/injection, schedule: Q01DX009 (ip), vehicle: saline with Tween-80
# [2] = dose: 50.0 mg/kg/injection, schedule: Q01DX009 (ip), vehicle: saline with Tween-80
# [3] = dose: 100.0 mg/kg/injection, schedule: Q01DX009 (ip), vehicle: saline with Tween-80
# [4] = dose: 200.0 mg/kg/injection, schedule: Q01DX009 (ip), vehicle: saline with Tween-80
# [5] = dose: 25.0 mg/kg/injection, schedule: Q04DX003 (ip), vehicle: saline with Tween-80
# [6] = dose: 100.0 mg/kg/injection, schedule: Q04DX003 (ip), vehicle: saline with Tween-80
# [7] = dose: 25.0 mg/kg/injection, schedule: Q01DX005 (ip), vehicle: saline with Tween-80
# [8] = dose: 50.0 mg/kg/injection, schedule: Q01DX005 (ip), vehicle: saline with Tween-80
# [9] = dose: 100.0 mg/kg/injection, schedule: Q01DX005 (ip), vehicle: saline with Tween-80
# [10] = dose: 200.0 mg/kg/injection, schedule: Q01DX005 (ip), vehicle: saline with Tween-80
# [11] = dose: 60.0 mg/kg/injection, schedule: Q01DX005 (ip), vehicle: saline with Tween-80
# [12] = dose: 120.0 mg/kg/injection, schedule: Q01DX005 (ip), vehicle: saline with Tween-80
# [13] = dose: 240.0 mg/kg/injection, schedule: Q01DX005 (ip), vehicle: saline with Tween-80
smiles,measurement,setting,value
CN(C)c1nc(N(C)C)nc(N(C)C)n1,T/C,"dose: 6.25 mg/kg/injection, schedule: Q01DX009 (ip), vehicle: saline with Tween-80",110 % of control
same,T/C,"dose: 12.5 mg/kg/injection, schedule: Q01DX009 (ip), vehicle: saline with Tween-80",105 % of control and 108 % of control and 96 % of control
same,T/C,"dose: 20.0 mg/kg/injection, schedule: Q01DX009 (ip), vehicle: saline with Tween-80",108 % of control
same,T/C,"dose: 25.0 mg/kg/injection, schedule: Q01DX001 (ip), vehicle: Klucel (hydroxypropylcellulose) (HPC)",103 % of control and 104 % of control
same,T/C,[1],98 % of control and 103 % of control and 107 % of control
same,T/C,"dose: 25.0 mg/kg/injection, schedule: Q04DX002 (ip), vehicle: Klucel (hydroxypropylcellulose) (HPC)",100 % of control and 112 % of control
same,T/C,"dose: 25.0 mg/kg/injection, schedule: Q04DX003 (ip), vehicle: Klucel (hydroxypropylcellulose) (HPC)",110 % of control and 115 % of control
same,T/C,"dose: 40.0 mg/kg/injection, schedule: Q01DX009 (ip), vehicle: saline with Tween-80",109 % of control
same,T/C,[2],104 % of control and 109 % of control (2×)
same,T/C,"dose: 75.0 mg/kg/injection, schedule: Q01DX005 (ip), vehicle: Klucel (hydroxypropylcellulose) (HPC)",105 % of control
same,T/C,"dose: 80.0 mg/kg/injection, schedule: Q01DX009 (ip), vehicle: saline with Tween-80",111 % of control
same,T/C,[3],114 % of control and 119 % of control and 97 % of control
same,T/C,"dose: 150.0 mg/kg/injection, schedule: Q01DX005 (ip), vehicle: Klucel (hydroxypropylcellulose) (HPC)",105 % of control
same,T/C,"dose: 160.0 mg/kg/injection, schedule: Q01DX009 (ip), vehicle: saline with Tween-80",118 % of control
same,T/C,[4],108 % of control
CN1CCC(CN2c3ccccc3Sc3ccccc32)CC1,T/C,[1],95 % of control
same,T/C,[5],100 % of control
same,T/C,[2],100 % of control
same,T/C,"dose: 50.0 mg/kg/injection, schedule: Q04DX003 (ip), vehicle: saline with Tween-80",109 % of control
same,T/C,[3],95 % of control
same,T/C,[6],109 % of control
Cc1nc([Se]c2nc(C)n3ccncc23)c2cnccn12,T/C,"dose: 37.5 mg/kg/injection, schedule: Q01DX001 (ip), vehicle: saline with Tween-80",95 % of control
same,T/C,"dose: 75.0 mg/kg/injection, schedule: Q01DX001 (ip), vehicle: saline with Tween-80",100 % of control
same,T/C,"dose: 150.0 mg/kg/injection, schedule: Q01DX001 (ip), vehicle: saline with Tween-80",100 % of control
CN(/N=C/c1ccccc1O)C(=O)Nc1cc(C(F)(F)F)ccc1Cl,T/C,[7],100 % of control
same,T/C,[8],100 % of control and 102 % of control
same,T/C,[9],94 % of control and 96 % of control
same,T/C,[10],91 % of control and 94 % of control
C[n+]1c2ccccc2cc2ccccc21,T/C,[5],86 % of control
Fc1ccccc1C(Nc1ncccn1)Nc1ncccn1,T/C,[2],88 % of control
same,T/C,"dose: 50.0 mg/kg/injection, schedule: Q01DX009 (ip), vehicle: saline",94 % of control
same,T/C,[3],87 % of control
same,T/C,"dose: 100.0 mg/kg/injection, schedule: Q01DX009 (ip), vehicle: saline",99 % of control
same,T/C,[4],87 % of control
same,T/C,"dose: 200.0 mg/kg/injection, schedule: Q01DX009 (ip), vehicle: saline",94 % of control
CC1(Cn2ccc(=O)[nH]c2=O)CC(C2(C)OCCO2)C(=O)O1 (stereo not drawn),T/C,[11],102 % of control
same,T/C,[12],102 % of control
same,T/C,[13],101 % of control
COc1ccc2[nH]c3c(C)c4ccn5c(=O)c6ccccc6cc5c4c(C)c3c2c1,T/C,"dose: 0.1 mg/kg/injection, schedule: Q04DX003 (ip), vehicle: distilled water + Tween-80",87 % of control
same,T/C,"dose: 0.2 mg/kg/injection, schedule: Q04DX003 (ip), vehicle: distilled water + Tween-80",100 % of control
same,T/C,"dose: 0.4 mg/kg/injection, schedule: Q04DX003 (ip), vehicle: distilled water + Tween-80",91 % of control
same,T/C,"dose: 0.78 mg/kg/injection, schedule: Q04DX003 (ip), vehicle: distilled water + Tween-80",87 % of control
same,T/C,"dose: 0.8 mg/kg/injection, schedule: Q04DX003 (ip), vehicle: distilled water + Tween-80",92 % of control
same,T/C,"dose: 200.0 mg/kg/injection, schedule: Q04DX003 (ip), vehicle: distilled water + Tween-80",91 % of control
COc1ccc(NS(=O)(=O)c2ccc(N=Cc3c4ccccc4nc4cc(Cl)ccc34)cc2)nn1,T/C,[11],91 % of control
same,T/C,[12],90 % of control
same,T/C,[13],87 % of control
COC1NC(=S)N(Cc2ccccc2)C1(C)C (stereo not drawn),T/C,"dose: 50.0 mg/kg/injection, schedule: Q01DX009 (ip), vehicle: suspension in saline",102 % of control
same,T/C,"dose: 100.0 mg/kg/injection, schedule: Q01DX009 (ip), vehicle: suspension in saline",97 % of control
same,T/C,"dose: 200.0 mg/kg/injection, schedule: Q01DX009 (ip), vehicle: suspension in saline",93 % of control
Cc1nn(C)c(NC(=O)c2ccccc2O)c1SC#N,T/C,"dose: 6.25 mg/kg/injection, schedule: Q01DX005 (ip), vehicle: saline with Tween-80",93 % of control
same,T/C,"dose: 12.5 mg/kg/injection, schedule: Q01DX005 (ip), vehicle: saline with Tween-80",93 % of control
same,T/C,[7],93 % of control
CCCCCSc1nc2ccc(NCN3C(=O)C4C5C=CC(C5)C4C3=O)cc2s1 (stereo not drawn),T/C,"dose: 50.0 mg/kg/injection, schedule: Q01DX009 (ip), vehicle: Klucel (hydroxypropylcellulose) (HPC)",98 % of control
same,T/C,"dose: 100.0 mg/kg/injection, schedule: Q01DX009 (ip), vehicle: Klucel (hydroxypropylcellulose) (HPC)",86 % of control
same,T/C,"dose: 200.0 mg/kg/injection, schedule: Q01DX009 (ip), vehicle: Klucel (hydroxypropylcellulose) (HPC)",92 % of control
O=P(NC1CCCC1)(N1CC1)N1CC1,T/C,"dose: 2.0 mg/kg/injection, schedule: Q04DX003 (ip), vehicle: saline",110 % of control
same,T/C,"dose: 2.66 mg/kg/injection, schedule: Q01DX009 (ip), vehicle: saline",154 % of control
same,T/C,"dose: 4.0 mg/kg/injection, schedule: Q01DX009 (ip), vehicle: saline",209 % of control
same,T/C,"dose: 4.0 mg/kg/injection, schedule: Q04DX003 (ip), vehicle: saline",120 % of control
same,T/C,"dose: 6.0 mg/kg/injection, schedule: Q01DX009 (ip), vehicle: saline",118 % of control
same,T/C,"dose: 8.0 mg/kg/injection, schedule: Q04DX003 (ip), vehicle: saline",200 % of control
same,T/C,"dose: 9.0 mg/kg/injection, schedule: Q01DX009 (ip), vehicle: saline",100 % of control
C1=C[N]2c3c4c(ccc3=C1)=CC=C[N]4[Ga]2[c]1ccccc1,T/C,"dose: 6.25 mg/kg/injection, schedule: Q01DX009 (ip), vehicle: Klucel (hydroxypropylcellulose) (HPC)",103 % of control
same,T/C,"dose: 12.5 mg/kg/injection, schedule: Q01DX009 (ip), vehicle: Klucel (hydroxypropylcellulose) (HPC)",106 % of control
same,T/C,"dose: 25.0 mg/kg/injection, schedule: Q01DX009 (ip), vehicle: Klucel (hydroxypropylcellulose) (HPC)",118 % of control
O=C(NC(Cc1cccc(F)c1)C(=O)O)c1ccccc1 (stereo not drawn),T/C,"dose: 6.25 mg/kg/injection, schedule: Q01DX009 (ip), vehicle: other",95 % of control
same,T/C,"dose: 12.5 mg/kg/injection, schedule: Q01DX009 (ip), vehicle: other",96 % of control
CCCc1cc(=O)[nH]c(SCC(=O)O)n1,T/C,[11],100 % of control
same,T/C,[12],101 % of control
same,T/C,[13],99 % of control
O=C1Oc2ccc3ccccc3c2CC1C(=O)c1ccc(Cl)cc1 (stereo not drawn),T/C,[2],88 % of control
same,T/C,[3],88 % of control
CC(=O)NC1C(Nc2ccc(S(=O)(=O)Nc3ccnn3-c3ccccc3)cc2)OC(CO)C(O)C1O (stereo not drawn),T/C,"dose: 50.0 mg/kg/injection, schedule: Q01DX005 (ip), vehicle: saline",108 % of control
same,T/C,"dose: 100.0 mg/kg/injection, schedule: Q01DX005 (ip), vehicle: saline",100 % of control
same,T/C,"dose: 200.0 mg/kg/injection, schedule: Q01DX005 (ip), vehicle: saline",106 % of control
O=[N+]([O-])c1ccc(N=Nc2ccccc2)cc1,T/C,[6],109 % of control
same,T/C,"dose: 200.0 mg/kg/injection, schedule: Q04DX003 (ip), vehicle: saline with Tween-80",100 % of control
same,T/C,"dose: 400.0 mg/kg/injection, schedule: Q04DX003 (ip), vehicle: saline with Tween-80",100 % of control
O=C(/C=C/c1c(-c2ccccc2)[nH]c2ccccc12)c1ccccc1[N+](=O)[O-],T/C,[11],95 % of control
same,T/C,[12],96 % of control
same,T/C,[13],92 % of control
COc1ccc2c(c1)OC(C)(C)C(c1ccccc1)=C2c1ccc(O)c([N+](=O)[O-])c1,T/C,[8],100 % of control
same,T/C,[9],101 % of control
same,T/C,[10],102 % of control
O=C1CSC(c2c(Cl)cccc2Cl)N1c1nncs1 (stereo not drawn),T/C,[11],111 % of control
same,T/C,[12],102 % of control
same,T/C,[13],98 % of control
